Laboratory results published in ChEMBL document CHEMBL1145206, “Design, synthesis and structure-activity relationships of novel taxane-based multidrug resistance reversal agents” (2005).

System: MDA-MB-435
Assay: MDR-reversal activity evaluated against the resistant human breast tumor cell line MDA-435/LCC6-MDR
Assay type: functional
Set-up: concentration or dose not given beside the values

| SMILES | Reduction [%] |
| --- | --- |
| CCC(=O)O[C@H]1C(=O)[C@]2(C)[C@@H](OC(=O)/C=C/c3ccc(C(=O)c4ccccc4)cc3)C[C@H]3OC[C@@]3(OC(C)=O)[C@H]2[C@H](OC(=O)c2ccccc2)[C@]2(O)C[C@H](OC(C)=O)C(C)=C1C2(C)C | 88 |
| COc1cccc(C(=O)Oc2ccc(/C=C/C(=O)O[C@H]3C[C@H]4OC[C@@]4(OC(C)=O)[C@H]4[C@H](OC(=O)c5ccccc5)[C@]5(O)C[C@H](OC(C)=O)C(C)=C([C@@H](OC(C)=O)C(=O)[C@]34C)C5(C)C)cc2)c1 | 34 |
| CC(=O)O[C@H]1C(=O)[C@]2(C)[C@@H](OC(=O)/C=C/c3ccc(OC(=O)c4ccc(O)cc4)cc3)C[C@H]3OC[C@@]3(OC(C)=O)[C@H]2[C@H](OC(=O)c2ccccc2)[C@]2(O)C[C@H](OC(C)=O)C(C)=C1C2(C)C | 24 |
| COc1ccccc1C(=O)Oc1ccc(/C=C/C(=O)O[C@H]2C[C@H]3OC[C@@]3(OC(C)=O)[C@H]3[C@H](OC(=O)c4ccccc4)[C@]4(O)C[C@H](OC(C)=O)C(C)=C([C@@H](OC(C)=O)C(=O)[C@]23C)C4(C)C)cc1 | 57 |
| CC(=O)O[C@H]1C[C@@]2(O)[C@@H](OC(=O)c3ccccc3)[C@@H]3[C@]4(OC(C)=O)CO[C@@H]4C[C@H](OC(C)=O)[C@@]3(C)C(=O)[C@H](OC(=O)/C=C/c3ccc(OC(=O)c4ccccc4)cc3)C(=C1C)C2(C)C | 7 |
| CC(=O)O[C@H]1C(=O)[C@]2(C)[C@@H](OC(=O)/C=C/c3ccc(OC(=O)c4ccccc4)cc3)C[C@H]3OC[C@@]3(OC(C)=O)[C@H]2[C@H](OC(=O)c2ccccc2)[C@]2(O)C[C@H](OC(C)=O)C(C)=C1C2(C)C | 91 |
| CC(=O)O[C@@]12CO[C@@H]1C[C@H](O)[C@@]1(C)C(=O)[C@H](O)C3=C(C)[C@@H](OC(=O)/C=C/c4ccc(C(=O)c5ccccc5)cc4)C[C@@](O)([C@@H](OC(=O)c4ccccc4)[C@H]21)C3(C)C | 0 |
| CC(=O)O[C@H]1C[C@@]2(O)[C@@H](OC(=O)c3ccccc3)[C@@H]3[C@]4(OC(C)=O)CO[C@@H]4C[C@H](OC(=O)/C=C/c4ccc(C(=O)c5ccccc5)cc4)[C@@]3(C)C(=O)[C@H](OC(=O)c3ccccc3)C(=C1C)C2(C)C | 51 |
| COc1ccc(CC(=O)O[C@H]2C(=O)[C@]3(C)[C@@H](OC(=O)/C=C/c4ccc(C(=O)c5ccccc5)cc4)C[C@H]4OC[C@@]4(OC(C)=O)[C@H]3[C@H](OC(=O)c3ccccc3)[C@]3(O)C[C@H](OC(C)=O)C(C)=C2C3(C)C)cc1 | 7 |
| COc1ccc(C(=O)Oc2ccc(/C=C/C(=O)O[C@H]3C[C@H]4OC[C@@]4(OC(C)=O)[C@H]4[C@H](OC(=O)c5ccccc5)[C@]56OC(=O)O[C@H]5[C@H](OC(C)=O)C(C)=C([C@@H](OC(C)=O)C(=O)[C@]34C)C6(C)C)cc2)cc1 | 69 |
| CC(=O)O[C@H]1C(=O)[C@]2(C)[C@@H](OC(=O)/C=C/c3ccc(OC(=O)c4cc5ccccc5[nH]4)cc3)C[C@H]3OC[C@@]3(OC(C)=O)[C@H]2[C@H](OC(=O)c2ccccc2)[C@]23OC(=O)O[C@H]2[C@H](OC(C)=O)C(C)=C1C3(C)C | 43 |
| COc1cccc(C(=O)Oc2ccc(/C=C/C(=O)O[C@H]3C[C@H]4OC[C@@]4(OC(C)=O)[C@H]4[C@H](OC(=O)c5ccccc5)[C@]56OC(=O)O[C@H]5[C@H](OC(C)=O)C(C)=C([C@@H](OC(C)=O)C(=O)[C@]34C)C6(C)C)cc2)c1 | 62 |
| CC(=O)O[C@H]1C(=O)[C@]2(C)[C@@H](OC(C)=O)C[C@H]3OC[C@@]3(OC(C)=O)[C@H]2[C@H](OC(=O)/C=C/c2ccc(C(=O)c3ccccc3)cc2)[C@]2(O)C[C@H](OC(C)=O)C(C)=C1C2(C)C | 27 |
| CC(=O)O[C@@]12CO[C@@H]1C[C@H](O)[C@@]1(C)C(=O)[C@H](O)C3=C(C)[C@@H](OC(=O)CCc4ccc5ccccc5c4)C[C@@](O)([C@@H](OC(=O)c4ccccc4)[C@H]21)C3(C)C | 37 |
| CC(=O)O[C@H]1C[C@@]2(O)[C@@H](OC(=O)c3ccccc3)[C@@H]3[C@]4(OC(C)=O)CO[C@@H]4C[C@H](OC(C)=O)[C@@]3(C)C(=O)[C@H](OC(=O)/C=C/c3cccc(NC(=O)c4ccccc4)c3)C(=C1C)C2(C)C | 43 |
| COC(=O)O[C@H]1C(=O)[C@]2(C)[C@@H](OC(=O)/C=C/c3ccc(C(=O)c4ccccc4)cc3)C[C@H]3OC[C@@]3(OC(C)=O)[C@H]2[C@H](OC(=O)c2ccccc2)[C@]2(O)C[C@H](OC(C)=O)C(C)=C1C2(C)C | 91 |
| CC(=O)O[C@H]1C[C@@]2(O)[C@@H](OC(=O)c3ccccc3)[C@@H]3[C@]4(OC(C)=O)CO[C@@H]4C[C@H](OC(C)=O)[C@@]3(C)C(=O)[C@H](OC(=O)/C=C/c3ccc(Oc4ccccc4)cc3)C(=C1C)C2(C)C | 29 |
| CC(=O)O[C@H]1C[C@@]2(O)[C@@H](OC(=O)c3ccccc3)[C@@H]3[C@]4(OC(C)=O)CO[C@@H]4C[C@H](OC(C)=O)[C@@]3(C)C(=O)[C@H](OC(=O)/C=C/c3ccc(C(=O)Oc4ccccc4)cc3)C(=C1C)C2(C)C | 24 |
| CC(=O)O[C@H]1C(=O)[C@]2(C)[C@@H](OC(=O)/C=C/c3ccc(C(=O)c4ccccc4)cc3)C[C@H]3OC[C@@]3(OC(C)=O)[C@H]2[C@H](OC(=O)C2CCCCC2)[C@]2(O)C[C@H](OC(C)=O)C(C)=C1C2(C)C | 86 |
| COc1ccc(C(=O)Oc2ccc(/C=C/C(=O)O[C@H]3C[C@H]4OC[C@@]4(OC(C)=O)[C@H]4[C@H](OC(=O)c5ccccc5)[C@]5(O)C[C@H](OC(C)=O)C(C)=C([C@@H](OC(C)=O)C(=O)[C@]34C)C5(C)C)cc2)cc1 | 39 |
| CC(=O)O[C@H]1C[C@@]2(O)[C@@H](OC(=O)c3ccccc3)[C@@H]3[C@]4(OC(C)=O)CO[C@@H]4C[C@H](OC(C)=O)[C@@]3(C)C(=O)[C@H](OC(=O)/C=C/c3ccc(Sc4ccccc4)cc3)C(=C1C)C2(C)C | 28 |
| CC(=O)O[C@H]1C(=O)[C@]2(C)[C@@H](OC(=O)/C=C/c3cccc4ccccc34)C[C@H]3OC[C@@]3(OC(C)=O)[C@H]2[C@H](OC(=O)c2ccccc2)[C@]2(O)C[C@H](O)C(C)=C1C2(C)C | 50 |
| COc1cccc(C(=O)O[C@H]2[C@@H]3[C@]4(OC(C)=O)CO[C@@H]4C[C@H](OC(=O)/C=C/c4ccc(C(=O)c5ccccc5)cc4)[C@@]3(C)C(=O)[C@H](OC(C)=O)C3=C(C)[C@@H](OC(C)=O)C[C@]2(O)C3(C)C)c1 | 95 |
| CC(=O)O[C@H]1C(=O)[C@]2(C)[C@@H](OC(=O)/C=C/c3ccc(OC(=O)c4ccccc4)cc3)C[C@H]3OC[C@@]3(OC(C)=O)[C@H]2[C@H](OC(=O)c2ccccc2)[C@]23OC(=O)O[C@H]2[C@H](OC(C)=O)C(C)=C1C3(C)C | 95 |
| CC(=O)O[C@H]1C[C@@]2(O)[C@@H](OC(=O)c3ccccc3)[C@@H]3[C@]4(OC(C)=O)CO[C@@H]4C[C@H](OC(=O)/C=C/c4ccc(C(=O)c5ccccc5)cc4)[C@@]3(C)C(=O)[C@H](OC(=O)/C=C/c3ccccc3)C(=C1C)C2(C)C | 11 |
| COc1ccccc1C(=O)Oc1ccc(/C=C/C(=O)O[C@H]2C[C@H]3OC[C@@]3(OC(C)=O)[C@H]3[C@H](OC(=O)c4ccccc4)[C@]45OC(=O)O[C@H]4[C@H](OC(C)=O)C(C)=C([C@@H](OC(C)=O)C(=O)[C@]23C)C5(C)C)cc1 | 79 |
| CC(=O)O[C@H]1C[C@@]2(O)[C@@H](OC(=O)c3ccccc3)[C@@H]3[C@]4(OC(C)=O)CO[C@@H]4C[C@H](OC(=O)/C=C/c4ccc(C(=O)c5ccccc5)cc4)[C@@]3(C)C(=O)[C@H](OC(=O)OCc3ccccc3)C(=C1C)C2(C)C | 10 |
| CC(=O)O[C@H]1C(=O)[C@]2(C)[C@@H](OC(C)=O)C[C@H]3OC[C@@]3(OC(C)=O)[C@H]2[C@H](OC(=O)CCc2ccc3ccccc3c2)[C@]2(O)C[C@H](OC(C)=O)C(C)=C1C2(C)C | 24 |

System: MCF7R
Assay: MDR-reversal activity evaluated against the resistant human breast tumor cell line MCF7-R
Assay type: functional
Set-up: concentration or dose not given beside the values

| SMILES | Reduction [%] |
| --- | --- |
| CC(=O)O[C@@]12CO[C@@H]1C[C@H](O)[C@@]1(C)C(=O)[C@H](OC(=O)/C=C/c3ccc(C(=O)c4ccccc4)cc3)C3=C(C)[C@@H](O)C[C@@](O)([C@@H](OC(=O)c4ccccc4)[C@H]21)C3(C)C | 95 |
| CC(=O)O[C@H]1C(=O)[C@]2(C)[C@@H](OC(=O)/C=C/c3ccc4ccccc4c3)C[C@H]3OC[C@@]3(OC(C)=O)[C@H]2[C@H](OC(=O)c2ccccc2)[C@]2(O)C[C@H](OC(C)=O)C(C)=C1C2(C)C | 99.3 |
| CC(=O)O[C@H]1C(=O)[C@]2(C)[C@@H](OC(=O)c3ccc4ccccc4c3)C[C@H]3OC[C@@]3(OC(C)=O)[C@H]2[C@H](OC(=O)c2ccccc2)[C@]2(O)C[C@H](O)C(C)=C1C2(C)C | 97.5 |
| CC(=O)O[C@@]12CO[C@@H]1C[C@H](OC(=O)/C=C/c1ccc3ccccc3c1)[C@@]1(C)C(=O)[C@H](OC(=O)/C=C/c3ccc4ccccc4c3)C3=C(C)[C@@H](O)C[C@@](O)([C@@H](OC(=O)c4ccccc4)[C@H]21)C3(C)C | 45 |
| CC(=O)O[C@H]1C(=O)[C@]2(C)[C@@H](OC(=O)/C=C/c3cccc4ccccc34)C[C@H]3OC[C@@]3(OC(C)=O)[C@H]2[C@H](OC(=O)c2ccccc2)[C@]2(O)C[C@H](O)C(C)=C1C2(C)C | 96 |
| CC(=O)O[C@H]1C(=O)[C@]2(C)[C@@H](OC(=O)CCc3cccc4ccccc34)C[C@H]3OC[C@@]3(OC(C)=O)[C@H]2[C@H](OC(=O)c2ccccc2)[C@]2(O)C[C@H](O)C(C)=C1C2(C)C | 96 |
| CC(=O)O[C@H]1C(=O)[C@]2(C)[C@@H](OC(=O)CCC3CCCC4CCCCC43)C[C@H]3OC[C@@]3(OC(C)=O)[C@H]2[C@H](OC(=O)C2CCCCC2)[C@]2(O)C[C@H](O)C(C)=C1C2(C)C (some centres undefined) | 81 |
| CC(=O)O[C@@]12CO[C@@H]1C[C@H](OC(=O)/C=C/c1ccc3ccccc3c1)[C@@]1(C)C(=O)[C@H](OC(=O)CCc3ccc(C(=O)c4ccccc4)cc3)C3=C(C)[C@@H](O)C[C@@](O)([C@@H](OC(=O)c4ccccc4)[C@H]21)C3(C)C | 0 |
| CC(=O)O[C@@]12CO[C@@H]1C[C@H](OC(=O)CCc1ccc(C(=O)c3ccccc3)cc1)[C@@]1(C)C(=O)[C@H](OC(=O)CCc3ccc(C(=O)c4ccccc4)cc3)C3=C(C)[C@@H](O)C[C@@](O)([C@@H](OC(=O)c4ccccc4)[C@H]21)C3(C)C | 99.7 |
| CC(=O)O[C@H]1C(=O)[C@]2(C)[C@@H](OC(=O)CNC(=O)c3ccc4ccccc4c3)C[C@H]3OC[C@@]3(OC(C)=O)[C@H]2[C@H](OC(=O)c2ccccc2)[C@]2(O)C[C@H](O)C(C)=C1C2(C)C | 42 |
| CC(=O)O[C@H]1C(=O)[C@]2(C)[C@@H](OC(=O)/C=C/c3ccc(C(=O)c4ccccc4)cc3)C[C@H]3OC[C@@]3(OC(C)=O)[C@H]2[C@H](OC(=O)c2ccccc2)[C@]2(O)C[C@H](O)C(C)=C1C2(C)C | 99.8 |
